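Method: 48-hour compound exposure of cells in 96-well plates, five concentrations, linear interpolation of endpoints. GI50 is the concentration that inhibits growth by half.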 The source made the active and inactive calls. No stated cut-off is given here; in the data, active = GI50 up to about 1.1 µM and inactive = higher.
What was measured:
Experiment in all cases: NCI tumour cell line growth inhibition, 48 h
SK-MEL-5 = test system: SK-MEL-5
MDA-MB-231 = test system: MDA-MB-231
HCT-15 = test system: HCT-15
RPMI-8226 = test system: RPMI-8226
NCI-H23 = test system: NCI-H23
SF-539 = test system: SF-539
KM12 = test system: KM12
SK-MEL-2 = test system: SK-MEL-2
HCT-116 = test system: HCT-116
786-0 = test system: 786-0
TK-10 = test system: TK-10
UACC-257 = test system: UACC-257
T47D = test system: T47D
PC-3 = test system: PC-3
HOP-62 = test system: HOP-62
MDA-MB-435 = test system: MDA-MB-435
NCI-H522 = test system: NCI-H522
NCI-H226 = test system: NCI-H226
UACC-62 = test system: UACC-62
U-251 = test system: U-251

For CCOC(=O)Nn1cnnc1Cc1ccccc1, the GI50 (SK-MEL-5) was > 100 µM (inactive), the GI50 (MDA-MB-231) was > 100 µM (inactive) and the GI50 (HCT-15) was > 100 µM. For the same compound, the GI50 (RPMI-8226) was > 100 µM (inactive), the GI50 (NCI-H23) was > 100 µM (inactive) and the GI50 (SF-539) was > 100 µM (inactive). For the same compound, the GI50 (KM12) was > 100 µM (inactive), the GI50 (SK-MEL-2) was > 100 µM (inactive) and the GI50 (HCT-116) was > 100 µM (inactive). The GI50 (786-0) was > 100 µM (inactive), the GI50 (TK-10) was > 100 µM (inactive) and the GI50 (UACC-257) was > 100 µM (inactive). The GI50 (T47D) was > 100 µM (inactive), the GI50 (PC-3) was > 100 µM (inactive) and the GI50 (HOP-62) was > 100 µM (inactive). For the same compound, the GI50 (MDA-MB-435) was > 100 µM (inactive), the GI50 (NCI-H522) was > 100 µM (inactive) and the GI50 (NCI-H226) was > 100 µM (inactive). The GI50 (UACC-62) was > 100 µM (inactive) and the GI50 (U-251) was > 100 µM (inactive).
For COc1ccc(/C=C2\CCC(CNc3cc(C)on3)C2=O)cc1 (centres undefined), the GI50 (SK-MEL-5) was > 100 µM (inactive), the GI50 (MDA-MB-231) was > 82 µM (inactive) and the GI50 (HCT-15) was > 100 µM. For the same compound, the GI50 (RPMI-8226) was > 100 µM (inactive), the GI50 (NCI-H23) was > 78.2 µM (inactive) and the GI50 (SF-539) was > 100 µM (inactive). For the same compound, the GI50 (KM12) was > 100 µM (inactive), the GI50 (SK-MEL-2) was > 79.3 µM (inactive) and the GI50 (HCT-116) was > 100 µM (inactive). For the same compound, the GI50 (786-0) was > 100 µM (inactive), the GI50 (TK-10) was > 84.9 µM (inactive) and the GI50 (UACC-257) was > 94.6 µM (inactive). For the same compound, the GI50 (T47D) was 33 µM (inactive), the GI50 (PC-3) was > 100 µM (inactive) and the GI50 (HOP-62) was 47.4 µM (inactive). For the same compound, the GI50 (MDA-MB-435) was > 100 µM (inactive), the GI50 (NCI-H522) was 79.8 µM (inactive) and the GI50 (NCI-H226) was > 100 µM (inactive). The GI50 (UACC-62) was > 100 µM (inactive) and the GI50 (U-251) was > 60.1 µM (inactive).
For CC(=O)OCC1OC(n2c3c(cc(C#N)c2=O)CCCCCC3)C(OC(C)=O)C(OC(C)=O)C1OC(C)=O (centres undefined), the GI50 (SK-MEL-5) was > 100 µM (inactive), the GI50 (MDA-MB-231) was > 100 µM (inactive) and the GI50 (HCT-15) was > 100 µM. The GI50 (RPMI-8226) was > 100 µM (inactive), the GI50 (NCI-H23) was > 100 µM (inactive) and the GI50 (SF-539) was > 100 µM (inactive). The GI50 (KM12) was > 100 µM (inactive), the GI50 (SK-MEL-2) was > 100 µM (inactive) and the GI50 (HCT-116) was > 100 µM (inactive). The GI50 (786-0) was > 100 µM (inactive), the GI50 (TK-10) was > 100 µM (inactive) and the GI50 (UACC-257) was > 100 µM (inactive). The GI50 (T47D) was 22.7 µM (inactive), the GI50 (PC-3) was > 100 µM (inactive) and the GI50 (HOP-62) was > 100 µM (inactive). For the same compound, the GI50 (MDA-MB-435) was > 100 µM (inactive), the GI50 (NCI-H522) was > 100 µM (inactive) and the GI50 (NCI-H226) was > 100 µM (inactive). The GI50 (UACC-62) was > 100 µM (inactive) and the GI50 (U-251) was > 100 µM (inactive).
For CC(=O)N1N=C(c2ccc3ccccc3c2O)CC1C(=O)c1ccco1 (centres undefined), the GI50 (SK-MEL-5) was 25 µM (inactive), the GI50 (MDA-MB-231) was 80.5 µM (inactive) and the GI50 (HCT-15) was 26.7 µM. For the same compound, the GI50 (RPMI-8226) was 17.2 µM (inactive), the GI50 (NCI-H23) was 27.9 µM (inactive) and the GI50 (SF-539) was 26.1 µM (inactive). The GI50 (KM12) was 10.8 µM (inactive), the GI50 (SK-MEL-2) was 18.7 µM (inactive) and the GI50 (HCT-116) was 28.6 µM (inactive). The GI50 (786-0) was 45 µM (inactive), the GI50 (TK-10) was 30.3 µM (inactive) and the GI50 (UACC-257) was 32.1 µM (inactive). The GI50 (T47D) was 40.6 µM (inactive), the GI50 (PC-3) was 22.5 µM (inactive) and the GI50 (HOP-62) was 30.6 µM (inactive). The GI50 (MDA-MB-435) was 14.7 µM (inactive), the GI50 (NCI-H522) was 17.9 µM (inactive) and the GI50 (NCI-H226) was 33.7 µM (inactive). For the same compound, the GI50 (UACC-62) was 17 µM (inactive) and the GI50 (U-251) was 27.7 µM (inactive).
Nc1ccccc1.O=C(O)C(C(F)(F)F)C(F)(F)F was tested, and the GI50 (SK-MEL-5) was > 100 µM (inactive), the GI50 (MDA-MB-231) was > 100 µM (inactive) and the GI50 (HCT-15) was 14.9 µM. For the same compound, the GI50 (RPMI-8226) was > 100 µM (inactive), the GI50 (NCI-H23) was > 100 µM (inactive) and the GI50 (SF-539) was > 100 µM (inactive). For the same compound, the GI50 (KM12) was 71.8 µM (inactive), the GI50 (SK-MEL-2) was > 100 µM (inactive) and the GI50 (HCT-116) was > 100 µM (inactive). The GI50 (786-0) was > 100 µM (inactive), the GI50 (TK-10) was > 100 µM (inactive) and the GI50 (UACC-257) was > 100 µM (inactive). The GI50 (T47D) was > 100 µM (inactive), the GI50 (PC-3) was > 100 µM (inactive) and the GI50 (HOP-62) was > 100 µM (inactive). The GI50 (MDA-MB-435) was > 100 µM (inactive), the GI50 (NCI-H522) was > 100 µM (inactive) and the GI50 (NCI-H226) was > 100 µM (inactive). The GI50 (UACC-62) was 68.5 µM (inactive) and the GI50 (U-251) was > 100 µM (inactive).
CC(=O)OC1CC[C@@]2(C)C(CC[C@]3(C)C2CC=C2[C@@H]4C(C)[C@H](C)CCC4(C)CCC23C)[C@@]1(C)C(=O)O (some centres undefined) was tested, and the GI50 (SK-MEL-5) was 17.4 µM (inactive), the GI50 (MDA-MB-231) was 20.9 µM (inactive) and the GI50 (HCT-15) was 17.6 µM. For the same compound, the GI50 (RPMI-8226) was 21.9 µM (inactive), the GI50 (NCI-H23) was 22.5 µM (inactive) and the GI50 (SF-539) was 21.4 µM (inactive). For the same compound, the GI50 (KM12) was 21.2 µM (inactive), the GI50 (SK-MEL-2) was 21.3 µM (inactive) and the GI50 (HCT-116) was 16.4 µM (inactive). For the same compound, the GI50 (786-0) was 23.2 µM (inactive), the GI50 (TK-10) was 18.6 µM (inactive) and the GI50 (UACC-257) was 21 µM (inactive). For the same compound, the GI50 (T47D) was 17.9 µM (inactive), the GI50 (PC-3) was 15.4 µM (inactive) and the GI50 (HOP-62) was 20.7 µM (inactive). The GI50 (MDA-MB-435) was 19.8 µM (inactive), the GI50 (NCI-H522) was 19.2 µM (inactive) and the GI50 (NCI-H226) was 22.1 µM (inactive). The GI50 (UACC-62) was 17 µM (inactive) and the GI50 (U-251) was 22 µM (inactive).
COc1cc2cc(C(=O)N3CC(CCl)c4c3cc([N+](=O)[O-])c3ccccc43)[nH]c2c(OC)c1OC (centres undefined) was tested, and the GI50 (SK-MEL-5) was 29.6 µM (inactive), the GI50 (MDA-MB-231) was > 100 µM (inactive) and the GI50 (RPMI-8226) was > 100 µM (inactive). For the same compound, the GI50 (NCI-H23) was 27.2 µM (inactive), the GI50 (SF-539) was 25.8 µM (inactive) and the GI50 (KM12) was > 62.8 µM (inactive). For the same compound, the GI50 (SK-MEL-2) was > 100 µM (inactive), the GI50 (HCT-116) was 27 µM (inactive) and the GI50 (786-0) was 29.3 µM (inactive). For the same compound, the GI50 (TK-10) was > 100 µM (inactive), the GI50 (UACC-257) was > 100 µM (inactive) and the GI50 (T47D) was > 66.8 µM (inactive). For the same compound, the GI50 (PC-3) was 10.9 µM (inactive), the GI50 (HOP-62) was 8.91 µM (inactive) and the GI50 (MDA-MB-435) was > 100 µM (inactive). For the same compound, the GI50 (NCI-H522) was 24.7 µM (inactive), the GI50 (NCI-H226) was > 100 µM (inactive) and the GI50 (UACC-62) was 15.9 µM (inactive). For the same compound, the GI50 (U-251) was 25.8 µM (inactive).

Source: ChEMBL document CHEMBL1201862, “PubChem BioAssay data set” (2004)
